Reference: patent publication US20260151400A1, “USE OF ANTAGONISTS OF NEUROKININ-1 RECEPTOR AND NUCLEOSIDE ANALOGS FOR THE TREATMENT OF HERPESVIRIDAE” (THE REGENTS OF THE UNIVERSITY OF COLORADO, a body corporate, priority 2022, published 2026)

Assays:
[1] = IV acyclovir; precipitation of aciclovir crystals in the kidney; cited from earlier work
[2] = tested on: uninfected HA-sp (primary human spinal astrocytes); details: aprepitant tested at 1-100 μM, data not shown
Procedure: After 24 hours, medium was changed to basal astrocyte medium containing 0.1% FBS and 1% 100× penicillin-streptomycin that was replenished every 72 hours for 7 days to establish quiescence. On day 7, spinal astrocytes were co-cultivated with VZV-infected spinal astrocytes (40 pfu/mL) or mock-infected spinal astrocytes.

[3] = target: NK-1 receptors in the brain (Homo sapiens, UniProt P25103); details: occupies NK-1 receptors in the brain; cited from earlier work
NK-1 receptors in the brain, sequence (P25103 whole entry): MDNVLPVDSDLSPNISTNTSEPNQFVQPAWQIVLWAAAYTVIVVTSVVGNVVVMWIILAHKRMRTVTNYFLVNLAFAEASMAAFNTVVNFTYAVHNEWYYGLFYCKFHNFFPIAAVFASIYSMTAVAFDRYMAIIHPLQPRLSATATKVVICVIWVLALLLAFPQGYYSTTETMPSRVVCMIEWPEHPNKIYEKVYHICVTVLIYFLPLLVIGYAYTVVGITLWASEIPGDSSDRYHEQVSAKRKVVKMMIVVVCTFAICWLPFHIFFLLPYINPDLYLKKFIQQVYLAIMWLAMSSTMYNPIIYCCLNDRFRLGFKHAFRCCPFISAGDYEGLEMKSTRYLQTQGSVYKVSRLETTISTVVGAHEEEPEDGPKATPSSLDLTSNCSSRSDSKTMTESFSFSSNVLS

Row | SMILES | patients with reversible nephrotoxicity [1] | optimal concentration to avoid cell death [2] | blood-brain barrier crossing [3]
1 | Nc1nc2c(ncn2COCCO)c(=O)[nH]1 [acyclovir] | 5-10% | – | –
2 | C[C@@H](O[C@H]1OCCN(Cc2n[nH]c(=O)[nH]2)[C@H]1c1ccc(F)cc1)c1cc(C(F)(F)F)cc(C(F)(F)F)c1 [aprepitant] | – | 10 µM | crosses the blood-brain barrier
